Like-named read-outs stand apart in the source and are kept apart here.
How the values were obtained:
HEK293F cells [1] = test: Transient gene expression in HEK293F cells: cell specific productivity of the expressed antibody; format: cell-based, human; details: for cell specific productivity with BAY11-7082 addition compared to the single treatment: 15 μM BAY11-7082 added 24 h after transfection; for specific productivity after 96 hours: none 2.01; for Mean cell specific productivity: untreated 1.71
Procedure: HEK293F cells were cultivated in F17 medium (Life Technologies) in shaker flasks at 36.5° C., 7.0% CO2 and 80% humidity in a shaker incubator (Kuhner, Mytron). Cells were split every three to four days and were cultivated no longer than five weeks. To avoid overgrowth and to keep them in the exponential phase of growth, viable cell densities (VCD) never exceeded 60*10^5 cells/mL.
(§1) Transient gene expression is a 5-7 days lasting procedure. The standard operating procedure of this expression system is applicable to shaker flasks with various volumes of cell culture ranging from 80 mL to 2 L. First, half of the cell culture volume is seeded at a viable cell density (VCD) of 8*10^5 cells/mL. After two days of cultivation, cells are split to a VCD of about 12*10^5 cells/mL. On the next day, cells are transfected with a polyethylene imine (PEI)-based transfection reagent at a VCD between 20*10^5 cells/mL and 25*10^5 cells/mL. 3 hours after transfection, the production enhancer (if any) is added. 24 h after transfection, a feeding solution and a glucose bolus is supplemented to avoid the limitation of nutrients. Depending on cell viability, which should not decrease below 50%, the supernatant is harvested five to seven days post transfection and subjected to antibody purification.
(§2) To compare transient gene expression rates always the same plasmids encoding for one distinct antibody were co-transfected.
(§3) To co-transfect two plasmids equimolarily, the ratio of the base pair number of one plasmid to the total base pair number was calculated and multiplied with the total amount of DNA (0.5 mg/L). Plasmid one has a size of 10530 bp and plasmid two has a size of 7184 bp and were solved in water to a final concentration of 1 mg/mL. For transfection of one liter cell culture, 297 μL of plasmid one and 203 μl of plasmid two were dissolved in 40 mL phosphate buffered saline (PBS) at room temperature. 1.25 mL JetPEI® solution was added and the solution was mixed well. After incubation for 10-15 min., the mixture was added to the cells. The cells were transfected in a batch containing the whole cell culture necessary for every experiment to avoid variance arising from different transfection efficiencies.
(§4) 80 mL of the transfected cell culture batch was added to a 125 ml shaker flask. For every experiment, two or three 125 mL shaker flasks were used as biological replicates and treated the same way. Three hours after transfection, cells were split into 125 mL shaker flasks and the cellular treatments with small molecules or ligands were started. Basal protein expression was determined by untreated control samples. To compare samples with the standard operating procedure, cells were also treated with VPA to a final concentration of 4 mM or 3 mM. VPA and its analogues were dissolved in double distilled water. […] Tumor necrosis factor (TNF) alpha was reconstituted with PBS supplemented with 0.1% BSA. Flagellin was dissolved in sterile double distilled water. The applied molecules were not added to the cultivation directly, but diluted in 16 mL medium pre-warmed to 36.5° C. and added to the cultivation thereafter.
(§5) 24 h after transfection a feeding solution at 36.5° C. and 3 mg/mL glucose were added to the cultivation.
(§6) To determine cell viability and viable cell density (VCD) 1 mL cultivation medium (cell suspension) was transferred into a Cedex low fouling sample cup. The cup was placed into a Vicell instrument (Beckman Coulter). The instrument mixes cells with trypan blue to stain dead cells. After analysis of 50 images VCD was calculated and viability was determined by calculation of the percentage of viable cell number in relation to the total cell number.
(§7) Total concentration of the transiently expressed antibody was determined by a turbidimetric test. One mL cell suspension was transferred into an Eppendorf cup and centrifuged for 10 min. at 10,000 rpm (9,300 g).

HEK293F cells [2] = test: Transient gene expression in HEK293F cells: IgG concentration / titer (turbidimetric test); format: cell-based, human; details: none=100; for relative IgG concentration: N=3; for relative titer: N=2
Procedure: as §1, §2, §3, §4, §5
as §7, with “g). The supernatant was transferred into a new cup and subjected to Cobas Integra 400 plus (Roche) analysis. With comparison to internal standard the absolute concentration was calculated.” for “g).”

HDAC [3] = test: in situ HDAC activity fluorimetric assay in HEK293F cells; format: cell-based, human; details: for HDACi: N=3, FIG. 3A; for HDAC inhibition: yes/no, summary table
Procedure: HDAC activity was determined by the in situ HDAC activity fluorimetric assay kit (Biovision) according to the manufacturer's instructions. HEK293F cells were suspended in F17 medium (Life Technologies) to a cell density of 5*10^5 cells/mL. One hundred micro liter culture was pipetted per well into a black ELISA plate. The plate was centrifuged at 1000 g for 5 min. The supernatant was discarded and the cells were resuspended in a reaction mix containing F17 medium, 1% HDAC substrate and the molecule tested towards HDAC inhibitory activity. 10 μM Trichostatin A was used as a positive control and the basal HDAC activity was determined by re-suspending the cells in F17 medium with 1% HDAC substrate. Furthermore, cells were resuspended in F17 medium without HDAC substrate as a background control. The HDAC activity assay was performed in triplicates for every sample as well as every control. The 96-well plate was incubated at 36.5° C., 80% humidity and 7% CO2 for one hour. During this time, the active HDACs deacetylate the HDAC substrate what releases the quenched fluorescent signal of the substrate. After incubation the fluorescent signal was analyzed by the infinite fluorescence plate reader (TECAN). The fluorescence signal of the samples and controls was normalized by subtracting the fluorescence signal of the background control. It is assumed that the fluorescent signal arising from deacetylation of the substrate directly correlates with HDAC activity.

HEK293F cells [4] = format: cell-based
Procedure: as §6

HDAC [5] = details: description from the literature; cited from earlier work

## CC/C=C(\C)C(=O)O [2M2P, trans-2-methyl 2-pentenoic acid]
HEK293F cells [1]
  cell specific productivity with BAY11-7082 addition compared to the single treatment: No reduction
HEK293F cells [1]; 3 mM, in words
  protein expression yields compared to the negative control: clearly increased
HEK293F cells [1]; 3 mM, single treatment, N=3
  specific productivity after 96 hours: 2.40 pg/cell/day
HEK293F cells [1]; Homo sapiens, HEK293F, 3 mM, 2M2P/Quisinostat combination study, none=100, N=3, read-out: relative cell specific productivity
  activity at 3000 µM: 169%
HEK293F cells [1]; Homo sapiens, HEK293F, 3 mM, VPA/2M2P combination study, none=100, N=3, read-out: relative cell specific productivity
  activity at 3000 µM: 169%
HEK293F cells [1]; Homo sapiens, HEK293F, 3 mM, none=100, N=3, FIG. 6A, read-out: relative cell specific productivity
  activity at 3000 µM: 131%
HEK293F cells [1]; Homo sapiens, HEK293F, 3 mM, none=100, N=3, FIG. 9A, read-out: relative cell specific productivity
  activity at 3000 µM: 131%
HEK293F cells [1]; Homo sapiens, HEK293F, 3 mM, single treatment, none=100, N=3, read-out: relative cell specific productivity
  activity at 3000 µM: 144%
HEK293F cells [1]; Homo sapiens, HEK293F, 3 mM, transfected control=100, N=3, FIG. 3B, read-out: relative cell specific productivity
  activity at 3000 µM: 191%
HEK293F cells [1]; Homo sapiens, HEK293F, employed concentration 2 mM, none=100, N=2, FIG. 4, read-out: relative cell specific productivity
  activity at 2000 µM: 123%
HEK293F cells [1]; Homo sapiens, HEK293F, employed concentration 3 mM, none=100, N=2, FIG. 4, read-out: relative cell specific productivity
  activity at 3000 µM: 196%
HEK293F cells [1]; conc. 3 mM
  Mean cell specific productivity: 5.4 (3 mM) pg/cell/24 h
HEK293F cells [2]; 3 mM, 2M2P/Quisinostat combination study
  relative IgG concentration: 146%
HEK293F cells [2]; 3 mM, VPA/2M2P combination study
  relative IgG concentration: 146%
HEK293F cells [2]; 3 mM, FIG. 6B
  relative IgG concentration: 128%
HEK293F cells [2]; 3 mM, FIG. 9B
  relative IgG concentration: 128%
HEK293F cells [2]; 2M2P concentration 3 mM
  relative titer: 165%
HEK293F cells [2]; 2M2P concentration 6 mM
  relative titer: 257%
HEK293F cells [2]; 2M2P concentration 7 mM
  relative titer: 258%
HEK293F cells [2]; 2M2P concentration 8 mM
  relative titer: 172%
HEK293F cells [2]; 2M2P concentration 9 mM
  relative titer: 120%
HEK293F cells [2]; 2M2P concentration 10 mM
  relative titer: 42%
HEK293F cells [2]; 2M2P concentration 11 mM
  relative titer: 0%
HDAC [3]; 3 mM
  HDACi: 9.4%
HDAC [3]
  HDAC inhibition: no
HEK293F cells [4]; human, 11 mM
  toxicity (remark in titer cell): toxic
HDAC [5]
  HDAC inhibitory activity: very weak to no HDAC inhibitory activity

## Cl.Cn1cc(CNCC2CCN(c3ncc(C(=O)NO)cn3)CC2)c2ccccc21 [Quisinostat]
HEK293F cells [1]; 300 nM, single treatment, N=3
  specific productivity after 96 hours: 3.89 pg/cell/day
HEK293F cells [1]
  cell specific productivity with BAY11-7082 addition compared to the single treatment: significantly reduced
HEK293F cells [1]; Homo sapiens, HEK293F, 300 nM, 2M2P/Quisinostat combination study, none=100, N=3, read-out: relative cell specific productivity
  activity at 0.3 µM: 258%
HEK293F cells [1]; Homo sapiens, HEK293F, 300 nM, VPA/Quisinostat combination study, none=100, N=3, read-out: relative cell specific productivity
  activity at 0.3 µM: 258%
HEK293F cells [1]; Homo sapiens, HEK293F, 300 nM, single treatment, none=100, N=3, read-out: relative cell specific productivity
  activity at 0.3 µM: 218%
HEK293F cells [1]; Homo sapiens, HEK293F, 300 nM, transfected control=100, N=3, FIG. 3B, read-out: relative cell specific productivity
  activity at 0.3 µM: 339%
HEK293F cells [1]; Homo sapiens, HEK293F, employed concentration 300 nM, none=100, N=2, FIG. 2B, read-out: relative cell specific productivity
  activity at 0.3 µM: 279%
HEK293F cells [1]; conc. 300 mM (so in the source)
  Mean cell specific productivity: 1.71 (300 mM) pg/cell/24 h
HEK293F cells [1]; summary table, in words
  Effect on titer/SPR: strong
HEK293F cells [2]; 300 nM, 2M2P/Quisinostat combination study
  relative IgG concentration: 169%
HEK293F cells [2]; 300 nM, VPA/Quisinostat combination study
  relative IgG concentration: 169%
HDAC [3]; 300 nM
  HDACi: 69%
HDAC [3]
  HDAC inhibition: yes
HEK293F cells [4]; in contrast to other HDACi tested
  growth inhibition and cell death: induce growth inhibition and cell death
HDAC [5]
  HDAC class / isoform selectivity: very potent broad spectrum HDAC inhibitor with highest potency towards HDAC 1, 2, 4, and 11
